From patent US20170307610A1, “COMPOUNDS THAT BIND DYSTROGLYCAN AND USES THEREOF” (OREGON HEALTH & SCIENCE UNIVERSITY, priority 2014, published 2017)

Test system: MDA-MB-231 human breast cancer cells
Assay: Laminin internalization in vector or LARGE expressing cells, flow cytometry
Format: cell-based
Source text: Loss of DG's laminin binding function is a cause of some congenital muscular dystrophies (CMDs) and is a frequent defect in cancers including those of the breast, prostate, colon, and brain (Akhavan A et al, 2012 supra; Beltran-Valero de Bernabe et al, 2009 infra). This loss of function arises from altered glycosylation of DG and can be restored in many carcinoma and glioblastoma cells by expression of the enzyme LARGE, a glycosyltransferase that confers laminin-binding properties to DG (Akhavan et al., 2012; Beltran-Valero de Bernabe D et al, J Biol Chem 284, 11279-11284 (2009); incorporated by reference herein. Based on these facts in light of the disclosure herein, it was hypothesized that laminin internalization would be severely disrupted in cancer cells lacking DG activity and enhanced by the restoration of such activity. This hypothesis was tested in MDA-MB-231 human breast cancer cells and LN18 human glioma cells, both of which lack DG glycosylation and function. […] Expression of LARGE restored normal glycosylation of DG as determined by western blot analysis with IIH6 antibody (FIG. 10A, LARGE) and functional interaction of DG in the laminin assembly assay (FIG. 10B, LARGE). These cells were subsequently assayed for laminin internalization by flow cytometry.
Flow Cytometry—Cells were plated in 12 well plates at 200,000 cells/well. The following day, media was changed to serum-free media with or without 10 μg/ml rhodamine laminin or 40 μg/ml FITC-dextran (500S-Sigma-Aldrich Corp., St. Louis, Mo., USA). Unless otherwise indicated, cells were incubated 18-24 hrs, washed once with PBS, and cells trypsinized. Cells were washed in 5 ml cold PBS/1 mM EDTA, pelleted, and resuspended in 1 ml PBS/1 mM EDTA. Using a BD FACScan flow cytometer (BD Biosciences, San Jose, Calif., USA), 10,000 cells/well were counted, background fluorescence from the cell counts with no added laminin subtracted and the mean fluorescence intensity values reported. Graphed data are compiled from duplicate wells from each experiment with a minimum of three separate experiments, unless indicated otherwise.

Rhod-Ln: laminin-111 labeled with NHS-rhodamine; dystroglycan binding reagent
increase in MFI of internalized laminin, LARGE vs vector (MDA-MB-231): 68 fold
MFI of internalized laminin, LARGE expressing cells (MDA-MB-231 LARGE, Rhod-Ln 18 hours, n=3): 6.82 +/−0.241
MFI of internalized laminin, vector cells (MDA-MB-231 empty vector, Rhod-Ln 18 hours, n=3): 0.1+/−0.014
